Data published in PubChem BioAssay (NCI).
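GI50: concentration for 50% inhibition of growth. TGI denotes the concentration required for complete inhibition of growth.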

What was measured:
Experiment in all cases: growth of human tumour cells (NCI), 384-well format
786-0 renal = test system: 786-0 renal
A498 renal = test system: A498 renal
A549 NSCLC = test system: A549 NSCLC
ACHN renal = test system: ACHN renal
BT-549 breast = test system: BT-549 breast
CAKI-1 renal = test system: CAKI-1 renal
CCRF-CEM leukemia = test system: CCRF-CEM leukemia
COLO 205 colon = test system: COLO 205 colon
DU-145 prostate = test system: DU-145 prostate
EKVX NSCLC = test system: EKVX NSCLC
HCC-2998 colon = test system: HCC-2998 colon
HCT-15 colon = test system: HCT-15 colon
HL-60(TB) leukemia = test system: HL-60(TB) leukemia
HOP-62 NSCLC = test system: HOP-62 NSCLC
HOP-92 NSCLC = test system: HOP-92 NSCLC
HS 578T breast = test system: HS 578T breast
HT29 colon = test system: HT29 colon
IGROV1 ovarian = test system: IGROV1 ovarian
KM12 colon = test system: KM12 colon
M14 melanoma = test system: M14 melanoma
MALME-3M melanoma = test system: MALME-3M melanoma
MCF7 breast = test system: MCF7 breast
MDA-MB-231 breast = test system: MDA-MB-231 breast
MDA-MB-435 melanoma = test system: MDA-MB-435 melanoma
MDA-MB-468 breast = test system: MDA-MB-468 breast
MOLT-4 leukemia = test system: MOLT-4 leukemia
NCI-H226 lung = test system: NCI-H226 lung
NCI-H23 lung = test system: NCI-H23 lung
NCI-H322M lung = test system: NCI-H322M lung
NCI-H460 NSCLC = test system: NCI-H460 NSCLC
NCI-H522 lung = test system: NCI-H522 lung
NCI/ADR-RES ovarian = test system: NCI/ADR-RES ovarian
OVCAR-3 ovarian = test system: OVCAR-3 ovarian
OVCAR-4 ovarian = test system: OVCAR-4 ovarian
OVCAR-5 ovarian = test system: OVCAR-5 ovarian
OVCAR-8 ovarian = test system: OVCAR-8 ovarian
PC-3 prostate = test system: PC-3 prostate
RPMI-8226 leukemia = test system: RPMI-8226 leukemia
RXF 393 renal = test system: RXF 393 renal
SF-268 CNS = test system: SF-268 CNS
SF-295 CNS = test system: SF-295 CNS
SF-539 CNS = test system: SF-539 CNS
SK-MEL-2 melanoma = test system: SK-MEL-2 melanoma
SK-MEL-28 melanoma = test system: SK-MEL-28 melanoma
SK-MEL-5 melanoma = test system: SK-MEL-5 melanoma
SK-OV-3 ovarian = test system: SK-OV-3 ovarian
SN12C renal = test system: SN12C renal
SNB-19 CNS = test system: SNB-19 CNS
SR leukemia = test system: SR leukemia
SW-620 colon = test system: SW-620 colon
T-47D breast = test system: T-47D breast
TK-10 renal = test system: TK-10 renal
U251 glioblastoma = test system: U251 glioblastoma
UACC-257 melanoma = test system: UACC-257 melanoma
UACC-62 melanoma = test system: UACC-62 melanoma

For `Cn1cc(C[C@@H](N)C(=O)O)c2ccccc21`, the GI50 (786-0 renal) was greater than 100 µM, the TGI (786-0 renal) was greater than 100 µM and the GI50 (A498 renal) was greater than 100 µM. It also gave a TGI (A498 renal) greater than 100 µM, a GI50 (A549 NSCLC) greater than 100 µM and a TGI (A549 NSCLC) greater than 100 µM. It also gave a GI50 (ACHN renal) greater than 100 µM, a TGI (ACHN renal) greater than 100 µM and a GI50 (BT-549 breast) greater than 100 µM. It also gave a TGI (BT-549 breast) greater than 100 µM, a GI50 (CAKI-1 renal) greater than 100 µM and a TGI (CAKI-1 renal) greater than 100 µM. The GI50 (CCRF-CEM leukemia) was greater than 100 µM, the TGI (CCRF-CEM leukemia) was greater than 100 µM and the GI50 (COLO 205 colon) was greater than 100 µM. It also gave a TGI (COLO 205 colon) greater than 100 µM, a GI50 (DU-145 prostate) greater than 100 µM and a TGI (DU-145 prostate) greater than 100 µM. For the same molecule, the GI50 (EKVX NSCLC) was greater than 100 µM, the TGI (EKVX NSCLC) was greater than 100 µM and the GI50 (HCC-2998 colon) was greater than 100 µM. For the same molecule, the TGI (HCC-2998 colon) was greater than 100 µM, the GI50 (HCT-15 colon) was greater than 100 µM and the TGI (HCT-15 colon) was greater than 100 µM. For the same molecule, the GI50 (HL-60(TB) leukemia) was greater than 100 µM, the TGI (HL-60(TB) leukemia) was greater than 100 µM and the GI50 (HOP-62 NSCLC) was greater than 100 µM. The TGI (HOP-62 NSCLC) was greater than 100 µM, the GI50 (HOP-92 NSCLC) was greater than 100 µM and the TGI (HOP-92 NSCLC) was greater than 100 µM. It also gave a GI50 (HS 578T breast) greater than 100 µM, a TGI (HS 578T breast) greater than 100 µM and a GI50 (HT29 colon) greater than 100 µM. For the same molecule, the TGI (HT29 colon) was greater than 100 µM, the GI50 (IGROV1 ovarian) was greater than 100 µM and the TGI (IGROV1 ovarian) was greater than 100 µM. For the same molecule, the GI50 (KM12 colon) was greater than 100 µM, the TGI (KM12 colon) was greater than 100 µM and the GI50 (M14 melanoma) was greater than 100 µM. For the same molecule, the TGI (M14 melanoma) was greater than 100 µM, the GI50 (MALME-3M melanoma) was greater than 100 µM and the TGI (MALME-3M melanoma) was greater than 100 µM. The GI50 (MCF7 breast) was greater than 100 µM, the TGI (MCF7 breast) was greater than 100 µM and the GI50 (MDA-MB-231 breast) was greater than 100 µM. For the same molecule, the TGI (MDA-MB-231 breast) was greater than 100 µM, the GI50 (MDA-MB-435 melanoma) was greater than 100 µM and the TGI (MDA-MB-435 melanoma) was greater than 100 µM. For the same molecule, the GI50 (MDA-MB-468 breast) was greater than 100 µM, the TGI (MDA-MB-468 breast) was greater than 100 µM and the GI50 (MOLT-4 leukemia) was greater than 100 µM. It also gave a TGI (MOLT-4 leukemia) greater than 100 µM, a GI50 (NCI-H226 lung) greater than 100 µM and a TGI (NCI-H226 lung) greater than 100 µM. The GI50 (NCI-H23 lung) was greater than 100 µM, the TGI (NCI-H23 lung) was greater than 100 µM and the GI50 (NCI-H322M lung) was greater than 100 µM. For the same molecule, the TGI (NCI-H322M lung) was greater than 100 µM, the GI50 (NCI-H460 NSCLC) was greater than 100 µM and the TGI (NCI-H460 NSCLC) was greater than 100 µM. For the same molecule, the GI50 (NCI-H522 lung) was greater than 100 µM, the TGI (NCI-H522 lung) was greater than 100 µM and the GI50 (NCI/ADR-RES ovarian) was greater than 100 µM. For the same molecule, the TGI (NCI/ADR-RES ovarian) was greater than 100 µM, the GI50 (OVCAR-3 ovarian) was greater than 100 µM and the TGI (OVCAR-3 ovarian) was greater than 100 µM. For the same molecule, the GI50 (OVCAR-4 ovarian) was greater than 100 µM, the TGI (OVCAR-4 ovarian) was greater than 100 µM and the GI50 (OVCAR-5 ovarian) was greater than 100 µM. For the same molecule, the TGI (OVCAR-5 ovarian) was greater than 100 µM, the GI50 (OVCAR-8 ovarian) was greater than 100 µM and the TGI (OVCAR-8 ovarian) was greater than 100 µM. For the same molecule, the GI50 (PC-3 prostate) was greater than 100 µM, the TGI (PC-3 prostate) was greater than 100 µM and the GI50 (RPMI-8226 leukemia) was greater than 100 µM. For the same molecule, the TGI (RPMI-8226 leukemia) was greater than 100 µM, the GI50 (RXF 393 renal) was greater than 100 µM and the TGI (RXF 393 renal) was greater than 100 µM. For the same molecule, the GI50 (SF-268 CNS) was greater than 100 µM, the TGI (SF-268 CNS) was greater than 100 µM and the GI50 (SF-295 CNS) was greater than 100 µM. It also gave a TGI (SF-295 CNS) greater than 100 µM, a GI50 (SF-539 CNS) greater than 100 µM and a TGI (SF-539 CNS) greater than 100 µM. For the same molecule, the GI50 (SK-MEL-2 melanoma) was greater than 100 µM, the TGI (SK-MEL-2 melanoma) was greater than 100 µM and the GI50 (SK-MEL-28 melanoma) was greater than 100 µM. For the same molecule, the TGI (SK-MEL-28 melanoma) was greater than 100 µM, the GI50 (SK-MEL-5 melanoma) was greater than 100 µM and the TGI (SK-MEL-5 melanoma) was greater than 100 µM. It also gave a GI50 (SK-OV-3 ovarian) greater than 100 µM, a TGI (SK-OV-3 ovarian) greater than 100 µM and a GI50 (SN12C renal) greater than 100 µM. The TGI (SN12C renal) was greater than 100 µM, the GI50 (SNB-19 CNS) was greater than 100 µM and the TGI (SNB-19 CNS) was greater than 100 µM. For the same molecule, the GI50 (SR leukemia) was greater than 100 µM, the TGI (SR leukemia) was greater than 100 µM and the GI50 (SW-620 colon) was greater than 100 µM. The TGI (SW-620 colon) was greater than 100 µM, the GI50 (T-47D breast) was greater than 100 µM and the TGI (T-47D breast) was greater than 100 µM. It also gave a GI50 (TK-10 renal) greater than 100 µM, a TGI (TK-10 renal) greater than 100 µM and a GI50 (U251 glioblastoma) greater than 100 µM. It also gave a TGI (U251 glioblastoma) greater than 100 µM, a GI50 (UACC-257 melanoma) greater than 100 µM and a TGI (UACC-257 melanoma) greater than 100 µM. The GI50 (UACC-62 melanoma) was greater than 100 µM and the TGI (UACC-62 melanoma) was greater than 100 µM.
